{
  "source": "paper PMC2937023",
  "about": "“Molecular Decoy to the Y-Box Binding Protein-1 Suppresses the Growth of Breast and Prostate Cancer Cells whilst Sparing Normal Cell Viability” (PLoS ONE, 2010)",
  "key": {"[1]": {"test_system": "YB-1 binding to the EGFR promoter", "conditions": "previous work; cited from earlier work", "description": "After 72 h, the CPP reduced HER-2 and EGFR protein levels in AU565 cells (Figure 3A). […] Further, in SUM149 cells, EGFR protein and mRNA levels were decreased (Figure 3C-D)."}, "[2]": {"test_system": "SUM149 cells", "test": "Monolayer growth assay, SUM149", "type": "cell-based, human", "conditions": "SUM149, 72 h, 0–50 µM scrambled peptide, MTS", "experimental": "(§3) For monolayer assays, cells were plated at 5000 cells per well in a 96 well plate. The following day cells were treated with diluent, 0–50 µM of scrambled peptide, or 0–50 µM CPP. The BT474, BT474-m1, HR5 and HR6 cells were also tested in combination with trastuzumab (BC Cancer Agency pharmacy, Vancouver, BC) at 20 µg/mL. […] Growth was shown as a percentage of diluent control and changes in growth were considered significant at P<0.01."}, "[3]": {"test_system": "EpCAM^+ primary normal human breast epithelial cells", "test": "Normal mammary epithelial cells assay, colony-forming cell (CFC) assay", "type": "cell-based", "conditions": "cells from two patients, 6 or 25 µM for 48 hours, colonies counted 7 days post-seeding", "description": "EpCAM^+ primary normal human breast epithelial cells from two patients were obtained, prepared, and isolated as previously described, [36]. In all subsequent experiments, the primary epithelial cells were grown in Epicult-B media (StemCell Technologies, Vancouver, BC) supplemented with 5% fetal calf serum. For the colony-forming cell (CFC) assay, EpCAM^+ cells from each patient were first seeded at 7000 cells/well into a 96 well plate and treated the following day with either diluent, scrambled peptide (6 or 25 µM), or CPP (6 or 25 µM) in triplicate wells for 48 hours. Following this peptide incubation, cells were harvested with trypsin, a single cell suspension was generated, and cells were seeded into the CFC assay as previously described, [37]. Colonies were counted 7 days post-seeding."}, "[4]": {"test_system": "184htert cells", "test": "Monolayer growth assay, normal immortalized mammary epithelial cells", "type": "cell-based, human", "conditions": "72 h, MTS proliferation assay, 0–50 µM", "experimental": "For monolayer assays, cells were plated at 5000 cells per well in a 96 well plate. The following day cells were treated with diluent, 0–50 µM of scrambled peptide, or 0–50 µM CPP. […] Growth was shown as a percentage of diluent control and changes in growth were considered significant at P<0.01."}, "[5]": {"test_system": "EpCAM^+ primary normal human breast epithelial cells", "test": "Normal mammary epithelial cells assay, MTS growth", "type": "cell-based", "conditions": "cells from reduction mammoplasties of two patients, 6 or 25 µM, 72 h"}, "[6]": {"test_system": "YB-1 binding to the EGFR promoter", "test": "Electrophoretic mobility shift assay (gel shift), SUM149 nuclear extracts", "type": "biochemical, human", "conditions": "SUM149 nuclear protein 5 µg pre-incubated 20 min with 25 µM peptide, EGFR2a oligonucleotides", "description": "The gel shift assay was performed using EGFR2a oligonucleotides as previously described. Briefly, SUM149 cells were harvested and cytoplasmic/nuclear fractions were obtained using the NE-PER kit followed by EMSA using the Lightshift Chemiluminescent EMSA kit (both kits from Pierce Biotechnology, Rockford, IL). Nuclear extracts were confirmed to contain RSK and YB-1 by immunoblotting. Nuclear protein (5 µg) was pre-incubated for 20 min with unlabeled oligonucleotide plus acetic acid control, scrambled peptide (25 µM), or CPP (25 µM or 50 µM) prior to the addition of biotin-labeled oligonucleotide. Chicken anti-YB-1 (1 µg) was used as positive control. Reactions were run on a non-denaturing polyacrylamide gel, transferred to a nylon membrane, cross-linked at 120 mJ/cm^2 using a Stratalinker (Stratagene, La Jolla, CA) and visualized with chemiluminescence (Pierce Biotechnology)."}, "[7]": {"test_system": "HR5 cells", "test": "Monolayer growth assay, HR5 (trastuzumab resistant), with or without trastuzumab", "type": "cell-based, human", "conditions": "72 h, MTS", "experimental": "as §3"}, "[8]": {"test_system": "EGFR", "test": "Immunoblotting of EGFR protein in SUM149 cells", "type": "cell-based, human", "conditions": "72 h, western blot", "description": "(§1) Cell lines used herein were evaluated for YB-1, the activating kinases RSK and AKT, and the downstream targets EGFR and HER-2. […] Proteins were extracted using ELB plus protease and phosphatase inhibitors and western blotting was performed as previously described. The following antibodies were used to detect proteins by immunoblotting (unless otherwise indicated, all antibodies were from Cell Signaling Technology, Danvers, MA): P-YB-1^S102 (1/500), YB-1 (1/2000, Abcam, Cambridge, MA), EGFR (1/5000, Stressgen, San Diego, CA), P-p90RSK^S380 (1/500), RSK1/RSK2/RSK3 (1/1000), HER-2 (1/1000, Abcam), AKT (1/1000), creb (1/1000), pan-actin (1/1000), vinculin (1/1000). Blots were quantified using ImageJ software."}, "[9]": {"test_system": "EGFR", "test": "Real-time quantitative RT-PCR of EGFR transcript in AU565 cells", "type": "cell-based, human", "conditions": "50 µM CPP, 24 h, qRT-PCR, 18S housekeeping", "description": "(§2) RNA was isolated from log growing AU565 and SUM149 cells treated with 50 µM scrambled CPP or 50 µM CPP for 24 h using the RNeasy Mini kit from Qiagen (Mississauga, ON). The RNA was reverse transcribed and amplified using HER-2 (for AU565 cells) or EGFR (for SUM149 and AU565 cells) specific primers and probes (Applied Biosystems, Foster City, CA). 18S mRNA was quantified as a housekeeping gene (Applied Biosystems)."}, "[10]": {"test_system": "EGFR", "test": "Real-time quantitative RT-PCR of EGFR transcript in SUM149 cells", "type": "cell-based, human", "conditions": "50 µM CPP, 24 h, qRT-PCR", "description": "as §2"}, "[11]": {"test_system": "HER-2", "test": "Real-time quantitative RT-PCR of HER-2 transcript in AU565 cells", "type": "cell-based, human", "conditions": "50 µM CPP, 24 h, qRT-PCR, 18S housekeeping", "description": "as §2"}, "[12]": {"test_system": "P-YB-1^S102", "test": "Immunoblotting of P-YB-1^S102 in LNCap cells", "type": "cell-based, human", "conditions": "12.5–50 µM CPP, 72 h, western blot", "description": "as §1"}, "[13]": {"test_system": "EGFR", "test": "Immunoblotting of EGFR protein in AU565 cells", "type": "cell-based, human", "conditions": "72 h, western blot", "description": "as §1"}, "[14]": {"test_system": "BT474-m1 cells", "test": "Monolayer growth assay, BT474-m1, with or without trastuzumab", "type": "cell-based, human", "conditions": "72 h, MTS", "experimental": "as §3"}, "[15]": {"test_system": "HR6 cells", "test": "Monolayer growth assay, HR6 (trastuzumab resistant), with or without trastuzumab", "type": "cell-based, human", "conditions": "72 h, MTS", "experimental": "as §3"}, "[16]": {"test_system": "BT474 cells", "test": "Monolayer growth assay, BT474, with or without trastuzumab", "type": "cell-based, human", "conditions": "72 h, MTS", "experimental": "as §3"}, "[17]": {"test_system": "P-YB-1^S102", "test": "Immunoblotting of P-YB-1^S102 in SUM149 cells", "type": "cell-based, human", "description": "as §1"}, "[18]": {"test_system": "HER-2", "test": "Immunoblotting of HER-2 protein in AU565 cells", "type": "cell-based, human", "conditions": "72 h, western blot", "description": "as §1"}, "[19]": {"test_system": "P-YB-1^S102", "test": "Immunoblotting of P-YB-1^S102 in AU565 cells", "type": "cell-based, human", "conditions": "12.5–50 µM CPP, 72 h, western blot", "description": "as §1"}},
  "note": "Ends that are not written are not given here.",
  "data": [
    {"compound": "COc1cccc(-c2cc(=O)c3ccccc3o2)c1N", "note": "[PD098059]", "values": [
      {"measurement": "YB-1 binding to the EGFR promoter", "setting": "[1]", "result": "reverse YB-1 binding"}
    ]},
    {"compound": "CC(=O)O[C@@H]1[C@@H](OC(C)=O)[C@@H](O)[C@H](Oc2c(-c3ccc(O)cc3)oc3cc(O)cc(O)c3c2=O)O[C@H]1C", "note": "[SL0101]", "values": [
      {"measurement": "YB-1 binding to the EGFR promoter", "setting": "[1]", "result": "reverse YB-1 binding"}
    ]},
    {"compound": "RALKYGVRP [scrambled peptide]", "values": [
      {"measurement": "effect on growth", "setting": "[2]", "result": "no effect"},
      {"measurement": "growth of normal breast epithelial cells (CFC output)", "setting": "[3]", "result": "neither the scrambled peptide nor the CPP had any growth effect"},
      {"measurement": "growth of normal human mammary epithelial cells", "setting": "[4]", "result": "neither the scrambled control peptide nor the CPP inhibited growth"},
      {"measurement": "growth of normal breast epithelial cells (MTS)", "setting": "[5]", "result": "neither the scrambled peptide nor the CPP had any growth effect"},
      {"measurement": "YB-1 binding to the EGFR promoter (gel shift)", "setting": "[6]", "result": "bound with high affinity"}
    ]},
    {"compound": "RQIKIWFQNRRMKWKKPRKYLRSVG-OH [CPP]", "values": [
      {"measurement": "sensitivity to trastuzumab", "setting": "[7]; HR5, CPP with trastuzumab 20 µg/ml", "result": "overcome drug insensitivity"},
      {"measurement": "growth, CPP", "setting": "[7]; HR5 trastuzumab resistant cells", "result": "significantly suppress growth"},
      {"measurement": "EGFR protein level", "setting": "[8]", "result": "decreased"},
      {"measurement": "reduction of EGFR transcript level", "setting": "[9]", "result": "~50", "unit": "%"},
      {"measurement": "EGFR mRNA level", "setting": "[10]", "result": "decreased"},
      {"measurement": "reduction of HER-2 transcript level", "setting": "[11]", "result": "~50", "unit": "%"},
      {"measurement": "phosphorylation of YB-1^S102", "setting": "[12]", "result": "decreased phosphorylation"},
      {"measurement": "EGFR protein level", "setting": "[13]", "result": "reduced"},
      {"measurement": "sensitivity to trastuzumab", "setting": "[14]; BT474-m1, CPP 12.5 or 50 µM with trastuzumab 20 µg/ml", "result": "increased the sensitivity"},
      {"measurement": "growth, CPP alone", "setting": "[14]; BT474-m1, CPP 12.5 or 50 µM", "result": "suppressed the growth"},
      {"measurement": "sensitivity to trastuzumab", "setting": "[15]; HR6, CPP with trastuzumab 20 µg/ml", "result": "overcome drug insensitivity"},
      {"measurement": "growth, CPP", "setting": "[15]; HR6 trastuzumab resistant cells", "result": "significantly suppress growth"},
      {"measurement": "YB-1 binding to the EGFR promoter (gel shift)", "setting": "[6]", "result": "blocked binding"},
      {"measurement": "sensitivity to trastuzumab", "setting": "[16]; BT474, CPP 12.5 or 50 µM with trastuzumab 20 µg/ml", "result": "increased the sensitivity"},
      {"measurement": "growth, CPP alone", "setting": "[16]; BT474, CPP 12.5 or 50 µM", "result": "suppressed the growth"},
      {"measurement": "phosphorylation of YB-1^S102", "setting": "[17]; 12.5–50 µM CPP, 72 h, western blot", "result": "decreased phosphorylation"},
      {"measurement": "decrease of P-YB-1^S102", "setting": "[17]; 1 h, western blot quantified using ImageJ, relative P-YB-1:YB-1", "result": 32, "unit": "%"},
      {"measurement": "HER-2 protein level", "setting": "[18]", "result": "reduced"},
      {"measurement": "phosphorylation of YB-1^S102", "setting": "[19]", "result": "decreased phosphorylation"}
    ]}
  ]
}
